Data on three compounds can be found in patent US8367695B2, “Condensed tetrahydroquinoline derivative and use thereof for medical purposes” (Mitsubishi Tanabe Pharma Corporation, priority 2007, dated 2013).

Structures are written as SMILES.

For the test, the target named is T1, Glucocorticoid Receptor (GR), CHO-GRE-Luc #35 cells (Cricetulus griseus, UniProt A0A9J7F8I2).
T1 sequence (A0A9J7F8I2 1-774): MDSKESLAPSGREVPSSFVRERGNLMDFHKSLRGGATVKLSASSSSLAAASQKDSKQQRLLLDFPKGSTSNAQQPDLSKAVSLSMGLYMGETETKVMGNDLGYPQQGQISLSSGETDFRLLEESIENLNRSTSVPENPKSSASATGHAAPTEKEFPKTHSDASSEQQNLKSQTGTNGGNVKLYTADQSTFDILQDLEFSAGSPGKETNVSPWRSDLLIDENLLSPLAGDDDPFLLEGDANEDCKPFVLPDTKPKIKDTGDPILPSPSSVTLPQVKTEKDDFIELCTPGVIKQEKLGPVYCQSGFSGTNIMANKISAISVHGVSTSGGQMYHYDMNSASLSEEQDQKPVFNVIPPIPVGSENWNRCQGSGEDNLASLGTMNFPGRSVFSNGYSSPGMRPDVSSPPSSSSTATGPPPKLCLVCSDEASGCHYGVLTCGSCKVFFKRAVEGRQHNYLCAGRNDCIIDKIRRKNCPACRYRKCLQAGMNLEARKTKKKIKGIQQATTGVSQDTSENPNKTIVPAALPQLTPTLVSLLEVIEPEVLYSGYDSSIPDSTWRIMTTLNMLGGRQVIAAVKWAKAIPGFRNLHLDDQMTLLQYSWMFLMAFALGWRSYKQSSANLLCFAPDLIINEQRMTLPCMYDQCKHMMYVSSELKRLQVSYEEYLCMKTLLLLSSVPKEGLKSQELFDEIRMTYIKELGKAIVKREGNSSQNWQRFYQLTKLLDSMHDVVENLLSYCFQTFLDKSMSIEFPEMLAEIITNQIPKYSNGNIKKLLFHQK
The test can be described thus: Glucocorticoid receptor function test using transgenic-recombinant cell (GRE-luciferase). The format is cell-based. The following applies: against GR stimulation with 10 nM dexamethasone, luciferase, about 6 hr; read-out: GR (IC50: nM). How it is done:
Glucocorticoid Receptor Function Test Using Transgenic-Recombinant Cell
Transgenic-recombinant cell was prepared by our company (Yokohama, JP). In Hokkaido System Science Co., Ltd., a cis-element wherein two glucocorticoid responsive elements (GRE) present in the […] promoter region of mouse were connected in tandem was produced on order from synthetic DNA. The gene was incorporated into a plasmid vector having a gene encoding luciferase enzyme. The plasmid was incorporated into CHO-K1 cell to give a transfectant. The expression cell (CHO-GRE-Luc #35) produces luciferase instead of the object protein under regulation of a transcription region involved in the expression of the object protein. That is, using the cell, a substance that controls production of the object protein can be screened for by replacing the substance with the luciferase activity. Fetal Bovine Serum (FBS), L-glutamine, penicillin-streptomycin solution, PBS(−), trypsin-EDTA solution, Opti-MEM medium and G418 were obtained from GIBCO (Auckland, N.Z.). A 10 cm dish and DMEM:HAM′S F12 medium were obtained from IWAKI (Chiba, JP). A 96 well white plate was obtained from Corning (Corning, N.Y.). Bright-Glo was obtained from Promega (Madison, US). Dexamethasone was obtained from Sigma Chemicals (St. Louis, Mo.).
CHO-GRE-Luc #35 cells were cultured for several days in a 10 cm dish in a medium (10% FBS/DMEM:HAM'S F12/2.5 mM L-glutamine/50 U/mL penicillin/25 μg/mL streptomycin/500 μg/mL G418). Sub-confluent cells were washed with a suitable amount of PBS(−), 1 ml of Trypsin-EDTA was added and the cells were stood still in a CO2 incubator at 37° C. for 3 min. A 10-fold amount of Opti-MEM medium was added to give a suspension, which was placed in a centrifugal tube and centrifuged (25° C., 1,000 rpm, 5 min). The supernatant was removed, and the cells were suspended in 5 ml of Opti-MEM medium and counted.
Storage solutions (5-20 mM) of the compound were prepared with DMSO. The storage solutions were diluted with DMSO to 1 mM, and further diluted 100-fold with distilled water or Opti-MEM medium to give solutions. The preparations were diluted with 1% DMSO solution to each concentration. As GR agonist, 10 nM dexamethasone was used. 0.2% DMSO was present at the time of the function assay.
The prepared compound solutions (evaluation compound solution or 1% DMSO solution 10 μL+dexamethasone or 1% DMSO solution 10 μL) were added to the plate. After the addition, the place was stood still in a CO2 incubator at 37° C. for about 6 hr. After the reaction, Bright-Glo was added at 20 μL/well, and the mixture was gently shaken and measured by a microplate luminometer (Turner Designs Instrument).
The IC50 value (nM) of the evaluation compound against GR stimulation with dexamethasone was calculated using Prism 3.0 as an analysis software and assuming one-site competition.
`CC1(C)Nc2c(cc(-c3cccc4nccn34)c3c2OCO3)C(C)(C)C1=O` [Example 71, 4-(imidazo[1,2-a]pyridin-5-yl)-6,6,8,8-tetramethyl-6,7,8,9-tetrahydro-[1,3]dioxolo[4,5-h]quinolin-7-one]: the IC50 (as a rule, the concentration at which inhibition is half-maximal) was found to be 59 nM.
`CC1(C)Nc2c(cc(-c3ccnc4ncccc34)c3occc23)C(C)(C)C1=O` [Example 102, 2,2,4,4-tetramethyl-6-([1,8]naphthyridin-4-yl)-1,2,3,4-tetrahydro-furo[2,3-h]quinolin-3-one]: the IC50 worked out at 35 nM.
For `CC1(C)Nc2c(cc(-c3cccc4ncccc34)c3c2OCO3)C(C)(C)C1=O` [Example 72, 6,6,8,8-tetramethyl-4-(quinolin-5-yl)-6,7,8,9-tetrahydro-[1,3]dioxolo[4,5-h]quinolin-7-one], the IC50 came out at 40 nM.
